The values below come from patent US9802990B2, “Functional peptides for obesity disorders” (DANONE, S.A., priority 2013, dated 2017).

A word on the IC50: it is the midpoint of a concentration-inhibition curve. Read a high IC50 as weaker potency.

Where two headings read alike, the source gives them in different places. Where no end group is shown, it is not given here.

Series [1] is described as follows: In vitro enzymatic digestion model of the digestive tract (pepsin, pancreatin, bile), HPLC. It counts as in vitro ADME. The settings on record: for metabolised at 0.5 h / metabolised at 2 h / metabolised at 0.25 h / metabolised at 1 h / metabolised at 5 min: read-out: Degradation (%); for metabolised at 0.25 h: Intestinal phase 15 min.; for metabolised at 1 h: Intestinal phase 60 min.; for degradation in the in vitro digestion model (in words): HPLC, completely degraded = at the beginning of the intestinal phase, resistant ones finally degraded at the end. The text has this: An in vitro enzymatic digestion model of an in vivo digestive tract was developed for mimicking the physiological conditions to check and certify that each selected peptide was differently degraded throughout the gastro-intestinal tract by the digestive process. Pepsin, pancreatin and bile concentrations were optimized using a published experimental design (Granado-Lorencio et al (2007). J. Agri. Food. Chem., 55, 6387-6394).

For series [2], the system named is C. elegans wild type strain N2. The experiment in a line: C. elegans body fat reduction, Nile Red staining. Particulars: for % Fluorescence Reduction: nematodes fed NG with peptides alone or in Savia soy fermented product, alone or mixed, 1 μg/mL final concentration, Nile Red; for % Fluorescence Reduction C. elegans: synthesized peptides at 1 μg/mL of final concentration. It counts as in vivo, Caenorhabditis elegans. The protocol:
The ability to reduce body fat content in the nematode C. elegans was analyzed in a group of 5 peptide extracts previously obtained from glycinin (see Table 4). These samples were selected by their high effect on PL and PLA2 in vitro inhibition. Specifically, 5 peptide extracts were selected from the PLA2 inhibition assay (M20G, M5G, M31G, M27G and M29G). Body fat content was analyzed in the C. elegans wild type strain N2 by Red Nile dying of living nematodes. Experiments were carried out with age-synchronized populations, starting from egg-stage to young adult stage (3-day adults). During the experiments, worms were cultured in the NGM agar plates as control condition, NGM with the corresponding peptide extracts (100 μL/plate) and NGM with 6 μg/mL of Orlistat as positive control. Nile Red was added on top of the NG plates already seeded with Escherichia coli OP50 strain to a final concentration of 0.05 μg/ml. After incubation at 20° C., young adult worms (60 worms per condition) were taken to measure the in vivo fluorescence in a VersaFluor™ Fluorometer System. Fluorescence obtained in treated worms was calculated from fluorescence of worms fed in control conditions (reference sample). Experiments were carried out by duplicate.
From these purified fractions, a total of 11 peptides were selected to be synthesized and evaluated in vivo in the obesity model of C. elegans (Table 9). All peptides were evaluated at 1 μg/mL of final concentration.
We selected 5 peptides obtained from hydrolysis of glycinin with strain 6 (P8a, P6a, P14c, P16f, P14b) The peptides from glycinin were added to a soy fermented product (Savia® from Danone) both alone or mixed at final concentration of 1 μg/mL. Nematodes were fed with these products and then total lipids were quantified by Nile Red staining.

The target in series [3] is PLA2 (pancreatic phospholipase A2) (Homo sapiens, UniProt P04054). The experiment in a line: PLA2 inhibition assay by HPLC with DOPC as substrate. The class given is biochemical. The protocol: Inhibition of PLA2 enzyme was determined by High Performance Liquid Chromatography (HPLC) using 1,2-dioleoyl-sn-glycero-3-phosphocholine (DOPC) as substrate as described by Singh et al. (A rapid isocratic high-performance liquid chromatography method for determination of cholesterol and 1,2-dioleoyl-sn-glycero-3-phosphocholine. Journal of Chromatography (2005); 1073:347-353). Waters 2695 HPLC with Waters 2996 Photodiode detector Array and a C8 column Hypersil BDS (250×4.6 mm, […]) were used carrying out an eluent isocratic method formed by a mixture of ammonium phosphate buffer 50 mM pH 2.7:methanol (15:85, v/v).
Chain of PLA2 (pancreatic phospholipase A2) (P04054 23-148, species assumed): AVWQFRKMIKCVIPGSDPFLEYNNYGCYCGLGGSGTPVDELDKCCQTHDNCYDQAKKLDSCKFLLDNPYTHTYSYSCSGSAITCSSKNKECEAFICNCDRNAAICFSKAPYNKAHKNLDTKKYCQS

Another series concerns the target T1, PL (pancreatic lipase) (Sus scrofa, UniProt P00591).
T1 sequence (P00591 1-450): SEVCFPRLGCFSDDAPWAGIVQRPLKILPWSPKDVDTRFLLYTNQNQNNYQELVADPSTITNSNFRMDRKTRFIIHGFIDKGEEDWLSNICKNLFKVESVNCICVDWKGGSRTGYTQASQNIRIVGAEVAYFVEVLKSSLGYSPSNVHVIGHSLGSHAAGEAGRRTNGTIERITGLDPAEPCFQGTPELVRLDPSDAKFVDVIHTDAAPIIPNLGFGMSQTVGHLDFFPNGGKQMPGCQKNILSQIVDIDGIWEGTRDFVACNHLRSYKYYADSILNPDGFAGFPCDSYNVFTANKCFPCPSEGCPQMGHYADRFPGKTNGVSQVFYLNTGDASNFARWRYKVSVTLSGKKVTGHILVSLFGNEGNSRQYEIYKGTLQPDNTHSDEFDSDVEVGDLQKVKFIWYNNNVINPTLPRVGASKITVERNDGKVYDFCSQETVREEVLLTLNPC
Description: PL inhibition assay with 4-methyl umbelliferyl oleate (4MUO), fluorescence. It counts as biochemical. Particulars: synthesized peptides. Here is the method: Inhibition of PL was determined using 4-methyl umbelliferyl oleate (4MUO) as substrate as described by Sugiyama et al. (Oligomeric procyanidins in apple polyphenol are main active components for inhibition of pancreatic lipase and triglyceride absorption. J Agric Food Chem (2007); 55: 4604-4609) with some modifications. Aliquots of 25 μl of each peptide extract were incubated with 25 μl of PL solution (1 mg/ml) and preincubated for 10 minutes at 26° C. with stirring of 500 rpm. Reaction was initiated by adding 50 μl of 4MUO (0.1 mM) dissolved in Dulbecco's buffer. After incubation at 26° C. for 20 minutes with constant stirring (500 rpm) the reaction was stopped by adding 100 μl of 0.1 M sodium citrate buffer (pH 4.2). The amount of 4-methyl umbelliferone released by the enzyme was determined by fluorescence. Peptide extracts were used as inhibitors in the enzymatic assay but had to be diluted 1/20 or 1/50 because of the interference between the fluorescence and the buffer containing the peptides.

Turning to SDNFEY [Peptide P6a, SDNFEY], the figures for the metabolised at 0.5 h in series [1] (Gastric phase 30 min.) and in series [1] (Intestinal phase 30 min.) were 31% and 100%, respectively. Besides, the metabolised at 2 h in series [1] (Gastric phase 120 min.) amounted to 66.9%; in series [1] (Intestinal phase 120 min.), 100%. For the same substance, the metabolised at 0.25 h in series [1] worked out at 100%. For the same substance, in series [1], the metabolised at 1 h came out at 100%. Moreover, the metabolised at 5 min in series [1] (Oral phase 5 min.) amounted to 23.7%. For the same substance, the “% Fluorescence Reduction” value in series [2] worked out at 36.2 ± 4.1%. Besides, the “% Fluorescence Reduction C. elegans” value in series [2] was found to be 40.90 ± 11.6%. Further, the “Percentage of PLA2 inhibition” value turned out to be 10.6 ± 5.0% in series [3] (peptide 0.035 mg/ml), 12.1 ± 4.0% in series [3] (peptide 0.35 mg/ml), 24.5 ± 1.4% in series [3] (peptide 2 mg/ml) and 31.9 ± 5.5% in series [3] (peptide 3.5 mg/ml). This substance also showed an IC50 against PL (pancreatic lipase) of 55.6 µM.
For EEEGGSVLSG [Peptide P10b, EEEGGSVLSG], the “% Fluorescence Reduction C. elegans” value in series [2] is reported as 33.48 ± 6.1%. Also, the “Percentage of PLA2 inhibition” value was found to be 7.8 ± 5.6% in series [3] (peptide 0.035 mg/ml), 13.9 ± 3.3% in series [3] (peptide 0.35 mg/ml), 26.1 ± 5.9% in series [3] (peptide 2 mg/ml) and 26.9 ± 2.5% in series [3] (peptide 3.5 mg/ml). Moreover, the concentration for half-maximal inhibition (IC50) against PL (pancreatic lipase) was 36.3 µM.
For SVIKPPTD [Peptide P8a, SVIKPPTD], the “Degradation (%)” value was −1.3% in series [1] (Gastric phase 30 min.) and −1.0% in series [1] (Gastric phase 120 min.). For the same substance, the “degradation in the in vitro digestion model (in words)” value (“degradation … (in words)” for short) in series [1] is on record as “resistant until the end of the process”. For the same substance, the metabolised at 0.25 h in series [1] worked out at 51.2%. The metabolised at 0.5 h in series [1] (Intestinal phase 30 min.) was found to be 71.6%. Further, the metabolised at 1 h in series [1] amounted to 90.7%. Moreover, the metabolised at 2 h in series [1] (Intestinal phase 120 min.) came out at 100%. The metabolised at 5 min in series [1] (Oral phase 5 min.) worked out at 1.7%. The “% Fluorescence Reduction” value in series [2] was 41.7 ± 4.02%. In series [2], the “% Fluorescence Reduction C. elegans” value stood at 44.67 ± 10.5%. Besides, the “Percentage of PLA2 inhibition” value in series [3] (peptide 0.035 mg/ml) came out at 12.7 ± 6.1%; in series [3] (peptide 0.35 mg/ml) it was 12.9 ± 3.9%; in series [3] (peptide 2 mg/ml) it was 26.0 ± 6.4%; in series [3] (peptide 3.5 mg/ml) it was 20.1 ± 7.7%. Besides, the IC50 on PL (pancreatic lipase) is 68.9 µM.
Consider “QGENEEEDSGAIVTVK [Peptide P16f, QGENEEEDSGAIVTVK]”, for which the metabolised at 0.5 h in series [1] (Gastric phase 30 min.) was 65.8%; in series [1] (Intestinal phase 30 min.), 100%. Further, the metabolised at 2 h stood at 95.2% in series [1] (Gastric phase 120 min.) and 100% in series [1] (Intestinal phase 120 min.). For the same substance, the “degradation … (in words)” value in series [1] was “completely degraded”. Besides, the metabolised at 0.25 h in series [1] turned out to be 100%. Further, the metabolised at 1 h in series [1] is 100%. Besides, in series [1] (Oral phase 5 min.), the “Degradation (%)” value was −1.2%. Further, the “% Fluorescence Reduction” value in series [2] is on record as 33.9 ± 5.7%. For the same substance, in series [2], the “% Fluorescence Reduction C. elegans” value is 38.95 ± 8.7%. Moreover, the “Percentage of PLA2 inhibition” value came out at 13.6 ± 3.8% in series [3] (peptide 0.035 mg/ml), 13.6 ± 0.4% in series [3] (peptide 0.35 mg/ml), 15.9 ± 6.0% in series [3] (peptide 2 mg/ml) and 22.5 ± 3.7% in series [3] (peptide 3.5 mg/ml). The substance further gave a 50% inhibitory concentration (IC50) at PL (pancreatic lipase) of 262 µM.
For the substance “QGENEGEDKGAIVT [Peptide P14b, QGENEGEDKGAIVT]”, the metabolised at 0.5 h is 6.7% in series [1] (Gastric phase 30 min.) and 48.9% in series [1] (Intestinal phase 30 min.). The metabolised at 2 h was determined as 8.7% in series [1] (Gastric phase 120 min.) and 100% in series [1] (Intestinal phase 120 min.). Also, the “degradation … (in words)” value in series [1] is recorded as “resistant until the end of the process”. In addition, in series [1], the metabolised at 0.25 h was determined as 36.7%. The metabolised at 1 h in series [1] was 68.8%. The metabolised at 5 min in series [1] (Oral phase 5 min.) was determined as 6%. In series [2], the “% Fluorescence Reduction” value stood at 30.25 ± 4.2%. The “% Fluorescence Reduction C. elegans” value in series [2] stood at 35.30 ± 6.1%. Also, the “Percentage of PLA2 inhibition” value in series [3] (peptide 0.035 mg/ml) amounted to 5.9 ± 5.0%; in series [3] (peptide 0.35 mg/ml), 22.2 ± 5.6%; in series [3] (peptide 2 mg/ml), 23.8 ± 5.5%; in series [3] (peptide 3.5 mg/ml) it was 28.8 ± 3.1%. On PL (pancreatic lipase), this substance had an IC50 of 346 µM.
For the substance “EEDQPRPDHPPQRP [Peptide P14c, EEDQPRPDHPPQRP]”, the results for the metabolised at 0.5 h in series [1] (Gastric phase 30 min.) and in series [1] (Intestinal phase 30 min.) were 4.2% and 93.2%, respectively. Moreover, the metabolised at 2 h in series [1] (Gastric phase 120 min.) stood at 4.6%; in series [1] (Intestinal phase 120 min.) it was 95.5%. Moreover, the “degradation … (in words)” value in series [1] is on record as “completely degraded”. In addition, the metabolised at 0.25 h in series [1] amounted to 92.9%. For the same substance, the metabolised at 1 h in series [1] was found to be 95%. In series [1] (Oral phase 5 min.), the metabolised at 5 min worked out at 5.3%. In addition, the “% Fluorescence Reduction” value in series [2] was found to be 33.7 ± 5.5%. The “% Fluorescence Reduction C. elegans” value in series [2] amounted to 39.37 ± 7.08%. The “Percentage of PLA2 inhibition” value amounted to 20.4 ± 4.4% in series [3] (peptide 0.035 mg/ml), 21.1 ± 4.3% in series [3] (peptide 0.35 mg/ml), 25.2 ± 4.3% in series [3] (peptide 2 mg/ml) and 26.1 ± 4.1% in series [3] (peptide 3.5 mg/ml). 28.9 µM corresponded to half-maximal inhibition at PL (pancreatic lipase) (IC50).
